Experimental data as given in the CheMixHub drug solubility set.

Assay: xn = mol fraction of the nth substance listed, in the solute-free solvent

CN1CCC(N(Cc2cccs2)c2ccccc2)CC1 + CC(C)O + O
solubility (g/100 g solution)
Details | 278.15 K | 283.15 K | 288.15 K | 293.15 K | 298.15 K | 303.15 K | 308.15 K | 313.15 K | 318.15 K | 323.15 K
x2 = 0.03225 | 0.141 | 0.15 | 0.16 | 0.173 | 0.19 | 0.208 | 0.229 | 0.249 | 0.274 | 0.301
x2 = 0.06974 | 0.326 | 0.345 | 0.365 | 0.394 | 0.428 | 0.466 | 0.508 | 0.551 | 0.601 | 0.656
x2 = 0.1139 | 0.573 | 0.606 | 0.64 | 0.689 | 0.746 | 0.809 | 0.879 | 0.952 | 1.03 | 1.13
x2 = 0.1666 | 0.834 | 0.881 | 0.933 | 1.01 | 1.09 | 1.18 | 1.28 | 1.39 | 1.51 | 1.64
x2 = 0.2307 | 1.04 | 1.1 | 1.18 | 1.28 | 1.4 | 1.51 | 1.64 | 1.78 | 1.95 | 2.12
x2 = 0.3103 | 1.24 | 1.33 | 1.43 | 1.54 | 1.67 | 1.81 | 1.96 | 2.11 | 2.3 | 2.52
x2 = 0.4117 | 1.4 | 1.51 | 1.62 | 1.75 | 1.93 | 2.12 | 2.32 | 2.54 | 2.77 | 3.04
x2 = 0.5454 | 1.55 | 1.68 | 1.82 | 1.99 | 2.15 | 2.34 | 2.58 | 2.83 | 3.11 | 3.42
x2 = 0.7297 | 1.61 | 1.77 | 1.95 | 2.14 | 2.35 | 2.6 | 2.85 | 3.13 | 3.41 | 3.74

O=C(O)C1CC(O)CN1 (centres undefined) + O + CC#N
solubility (g/100 g solution)
Details | x2 = 0.1 | x2 = 0.2 | x2 = 0.3 | x2 = 0.4 | x2 = 0.5 | x2 = 0.6 | x2 = 0.7 | x2 = 0.8 | x2 = 0.9
283.15 K | 0.0362 | 0.0575 | 0.0864 | 0.185 | – | 0.635 | 1.45 | 3.22 | 9.59
293.15 K | 0.0605 | 0.101 | 0.188 | 0.517 | 1.13 | 1.82 | 2.8 | 4.82 | 12.7
303.15 K | 0.0971 | 0.136 | 0.287 | 0.813 | 1.6 | 2.88 | 4.48 | 7.02 | 15.9
313.15 K | 0.128 | 0.203 | 0.398 | 1.08 | 2.25 | 3.66 | 6.08 | 11.3 | 21.4
323.15 K | 0.187 | 0.327 | 0.778 | 1.71 | 3.12 | 5.6 | 10.2 | 16.7 | 24.8
